Reference: BindingDB's records for doi:10.7270/Q2TX3CTT (Broad Institute, 2010)
Counter-ions that a name gives are not always drawn.

Target: Glycogen synthase kinase-3 beta (Homo sapiens, UniProt P49841)
Test: concentration-response blocking of human GSK3B – biochemical, luminescence, cell-free homogeneous, retest, dose response (AID 434954)

Sequence of Glycogen synthase kinase-3 beta (P49841 whole entry): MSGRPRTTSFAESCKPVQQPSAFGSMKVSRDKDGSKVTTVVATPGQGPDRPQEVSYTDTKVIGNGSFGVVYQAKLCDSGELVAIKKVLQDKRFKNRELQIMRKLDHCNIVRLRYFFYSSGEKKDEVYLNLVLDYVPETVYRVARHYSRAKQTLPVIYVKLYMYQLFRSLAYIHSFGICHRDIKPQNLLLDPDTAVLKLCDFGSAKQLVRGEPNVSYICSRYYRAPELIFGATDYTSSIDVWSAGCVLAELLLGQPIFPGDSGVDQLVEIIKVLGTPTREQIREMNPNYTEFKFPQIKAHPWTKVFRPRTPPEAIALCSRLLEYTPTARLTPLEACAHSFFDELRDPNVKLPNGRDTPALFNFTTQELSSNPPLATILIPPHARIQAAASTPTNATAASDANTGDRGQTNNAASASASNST

EC50	Compound
24.7 µM	CCN1/C(=C/C(C)=C/c2sc3ccccc3[n+]2CC)Sc2ccccc21 [SMR000354813]
> 300 µM	CC(=O)Nc1ncc2c(n1)CC(c1ccco1)CC2=O (stereo not drawn) [N-(7-Furan-2-yl-5-oxo-5,6,7,8-tetrahydro-quinazolin-2-yl)-acetamide]
> 300 µM	COCCn1c(SCC(=O)Nc2ccccc2OC)nc2ccccc21 [SMR000377677]
> 300 µM	CCCCCCNC(=O)C(C(=O)OCC)C1CCCCC1 (stereo not drawn) [ethyl 2-cyclohexyl-3-(hexylamino)-3-oxidanylidene-propanoate]
> 300 µM	O=C(O)CCn1cc(/C=C\C(=O)c2ccc(Cl)cc2)c(-c2cccc(Br)c2)n1 [3-[3-(3-bromophenyl)-4-[(Z)-3-(4-chlorophenyl)-3-oxoprop-1-enyl]pyrazol-1-yl]propanoic acid]
> 300 µM	COc1cc(C(c2nnnn2C(C)(C)C)N2CCN(c3nc4ccccc4s3)CC2)ccc1O (stereo not drawn) [MLS000027473]
> 300 µM	CN1CCN(CCCNC(=O)Nc2ccc([N+](=O)[O-])cc2)CC1 [N-[3-(4-methylpiperazin-1-yl)propyl]-N'-(4-nitrophenyl)urea]
> 300 µM	CC(C)Nc1nc(-c2ccncc2)nc(-c2ccc(Cl)cc2)c1C#N [SMR000333194]
> 300 µM	CN(C)Cc1c(O)ccc2c(=O)c(-c3ccccc3)c(C(F)(F)F)oc12
> 300 µM	COc1ccc(OCCN(C)Cc2ccccc2)cc1
> 300 µM	Nc1nc(NCc2ccco2)nc(Nc2ccccc2)c1[N+](=O)[O-] [N-Furan-2-ylmethyl-5-nitro-N'-phenyl-pyrimidine-2,4,6-triamine]
14.4 µM	Nc1nonc1-n1nnc(C(=O)NN=Cc2ccccc2F)c1-c1cccs1
> 300 µM	Nc1nc(NCC2CCCO2)nc(Nc2cccc(Cl)c2)c1[N+](=O)[O-] (stereo not drawn) [SMR000434547]
> 300 µM	CCN1CCc2c(sc(NC(=O)CN3C(=O)c4ccccc4C3=O)c2C(N)=O)C1 [2-[2-[1,3-bis(oxidanylidene)isoindol-2-yl]ethanoylamino]-6-ethyl-5,7-dihydro-4H-thieno[2,3-c]pyridine-3-carboxamide;hydrochloride]
> 300 µM	COc1cc(/C=N/NC(=O)c2ccc(Cl)cc2)ccc1Oc1ccc([N+](=O)[O-])cn1
8.24 µM	O=C(O)Cn1cc(CN=Nc2ccc([N+](=O)[O-])cn2)c2ccccc21 [SMR000540193]
> 300 µM	Cc1cc(OCC(O)CNC(C)c2ccccc2)ccc1C(C)C (stereo not drawn) [1-(3-methyl-4-propan-2-ylphenoxy)-3-(1-phenylethylamino)-2-propanol;hydrochloride]
16.6 µM	CCCOc1ccc(-c2c(C(=O)NN=C(C)c3ccco3)nnn2-c2nonc2N)cc1
> 300 µM	CCCCn1nc(NC(=O)CCC)c2cc3cc(OC)ccc3nc21 [MLS001214871]
> 300 µM	CCCC1=Nc2ncnn2C(c2sccc2C)C1C(=O)OCC (stereo not drawn) [SMR000440057]
> 100 µM	CC(OC(=O)c1nsc(Cl)c1Cl)C(=O)NCc1ccco1 (stereo not drawn) [MLS000074009]
> 300 µM	CC1CCc2c(sc(Nc3nc4c(F)cccc4s3)c2C(N)=O)C1 (stereo not drawn) [2-[(4-fluoranyl-1,3-benzothiazol-2-yl)amino]-6-methyl-4,5,6,7-tetrahydro-1-benzothiophene-3-carboxamide]
> 300 µM	COc1cc(CN=Nc2nc(Nc3ccccc3)nc(N3CCCCC3)n2)ccc1OCC(=O)O [SMR000312683]
47.2 µM	O=C(Nc1ccc(Cl)c(Cl)c1)Nc1ccccn1 [SMR000515062]

EC50	Compound
> 300 µM	CC(=O)N1CCc2c(sc(NC(=O)C3CCCN3S(=O)(=O)c3cccs3)c2C(N)=O)C1 (stereo not drawn) [6-acetyl-2-[(1-thiophen-2-ylsulfonylpyrrolidine-2-carbonyl)amino]-5,7-dihydro-4H-thieno[2,3-c]pyridine-3-carboxamide]
> 300 µM	Cc1ccc2sc(N(CCN(C)C)C(=O)c3ccc(S(=O)(=O)N4CC(C)OC(C)C4)cc3)nc2c1C (stereo not drawn) [N-[2-(dimethylamino)ethyl]-N-(4,5-dimethyl-1,3-benzothiazol-2-yl)-4-(2,6-dimethylmorpholin-4-yl)sulfonyl-benzamide;hydrochloride]
> 300 µM	OC(COc1ccc(OCC(O)CN2CCN(Cc3ccccc3)CC2)cc1)CN1CCN(Cc2ccccc2)CC1 (stereo not drawn) [SMR000473226]
5.91 µM	Cc1cccc(Nc2nc(N)c([N+](=O)[O-])c(NCCO)n2)c1 [2-(6-Amino-5-nitro-2-m-tolylamino-pyrimidin-4-ylamino)-ethanol]
> 300 µM	COC(=O)C1=C(C)N(CCCC(=O)O)C(=O)NC1c1ccc([N+](=O)[O-])cc1 (stereo not drawn) [MLS000562939]
> 300 µM	O=c1oc(-c2cccs2)nc2sc3c(c12)CCCCC3
2.29 µM	CC(=O)N1CCc2c(sc(NC(=O)CN3C(=O)CCC3=O)c2C(N)=O)C1 [6-acetyl-2-[[2-(2,5-dioxopyrrolidin-1-yl)acetyl]amino]-5,7-dihydro-4H-thieno[2,3-c]pyridine-3-carboxamide]
> 300 µM	C=C1C(c2ccc(OC)cc2)=[N+](O)C(C)=C(C)N1[O-]
> 300 µM	O=c1cc(-c2ccccc2Cl)oc2ccc([N+](=O)[O-])c(O)c12 [2-(2-chlorophenyl)-5-hydroxy-6-nitrochromen-4-one]
> 300 µM	CC1CN(C(=O)CCc2cc(C(C)(C)C)c(O)c(C(C)(C)C)c2)CC(C)O1 (stereo not drawn) [3-(3,5-ditert-butyl-4-hydroxyphenyl)-1-(2,6-dimethyl-4-morpholinyl)-1-propanone]
> 300 µM	O=C(Nc1nnc(-c2cc(Cl)ccc2Cl)o1)c1ccco1
> 300 µM	NC(=O)c1ncn([C@@H]2O[C@H](CO)[C@@H](O)[C@H]2O)n1 [Tribavirin]
> 300 µM	CCOC(=O)C1C(C)=Nc2ncnn2C1/C=C/c1ccccc1 (stereo not drawn) [MLS000089169]
7.19 µM	Cc1ccnc(NC(=O)C(C)n2cc([N+](=O)[O-])cn2)c1 (stereo not drawn)
> 300 µM	O=C(CSc1nnc(CNC(=O)c2cccc(C(F)(F)F)c2)o1)NC1CCCCC1
> 300 µM	CN=C(C)C(C(=O)OC)C(=O)c1ccc(Cl)cc1Cl (stereo not drawn) [SMR000461254]
> 300 µM	COc1ccc(OC)c(C(=O)c2coc3ccc(O)cc23)c1 [(2,5-dimethoxyphenyl)-(5-hydroxy-1-benzofuran-3-yl)methanone]
> 300 µM	CC(C)CCNc1nc(N)c([N+](=O)[O-])c(NC2CCCCC2)n1
> 300 µM	CC(C)c1ccc(NS(=O)(=O)c2ccc(Cl)nc2)cc1 [6-chloro-N-(4-propan-2-ylphenyl)pyridine-3-sulfonamide]
0.584 µM	COc1ccccc1Nc1nc(NCCC(C)C)nc(N)c1[N+](=O)[O-] [N'-(2-Methoxy-phenyl)-N-(3-methyl-butyl)-5-nitro-pyrimidine-2,4,6-triamine]
> 300 µM	CN1CCN(/N=C/c2ccc(-c3ccc([N+](=O)[O-])cc3Cl)o2)CC1 [1-[5-(2-chloro-4-nitrophenyl)-2-furanyl]-N-(4-methyl-1-piperazinyl)methanimine]
> 300 µM	CNc1nc(-c2ccccc2)nc(-c2ccccc2)c1C#N [MLS000539511]
55.2 µM	Nc1nonc1-n1nnc(C(=O)NN=Cc2c(Cl)cccc2Cl)c1CN1CCOCC1 [1-(4-azanyl-1,2,5-oxadiazol-3-yl)-N-[[2,6-bis(chloranyl)phenyl]methylideneamino]-5-(morpholin-4-ylmethyl)-1,2,3-triazole-4-carboxamide]

Compound	EC50
Clc1ccccc1CN1CCN(c2cccc3[nH]ccc23)CC1 [4-[4-[(2-chlorophenyl)methyl]piperazin-1-yl]-1H-indole]	> 300 µM
